Results published in patent publication US20230087994A1, “TARGETED BIFUNCTIONAL DEGRADERS” (YALE UNIVERSITY, priority 2019, published 2023).
Square brackets hold non-standard residues; d marks the D form. Peptide text beside a SMILES is read from it. * marks the point of attachment. Sta = CC(C)C[C@H](N)[C@@H](O)CC(=O)O; Isovaleryl = CC(C)CC(=O)*; Nle = CCCC[C@H](N)C(=O)O

What was measured:
HepG2 cells [1] = assay: Degradation of α-DNP antibody endocytosed via DNP-AF3 in HepG2 cells (PAGE, 50 kDa/25 kDa band ratio) and effect of protease inhibitors; type: cell-based, human; conditions: for inhibition of α-DNP antibody degradation, triplicate: 12 hours, FIG. 117; for inhibition of degradation of α-DNP antibody, repeat with selected conditions: 80 μM leupeptin, 10 and 100 μM ALLN, 15 μM pepstatin, FIG. 118, leupeptin not significant (p=0.0504); for toxicity to cells: pepstatin 5 μM after 24 hours, AEBSF 100 μM, ALLN 100 μM by 24 hours
Excerpt: First, reducing conditions were used to visualize antibody degradation via PAGE gel.

HepG2 cells [2] = assay: DNP-GN3-mediated endocytosis of fluorescently labeled α-DNP antibody by adherent HepG2 cells; type: cell-based, human; conditions: DNP-GN3-mediated uptake; FIG. 89
Description: It was next explored whether DNP-GN3 mediates the endocytosis of fluorescently labeled α-DNP antibody.
To explore the cellular mechanism of antibody uptake, cells were treated with chemical inhibitors of several endocytic pathways (FIG. 89).

HepG2 cells [3] = assay: MIF-GN3-mediated endocytosis of fluorescently labeled human MIF by HepG2 cells; conditions: 100 nM MIF, 200 nM MIF-GN3; FIG. 132
Description: Human MIF protein was fluorescently labeled with Alexa 488 NHS ester, then incubated with HepG2 cells in the presence of varying levels of MIF-GN3.
Next, inhibitors of various endocytic pathways were utilized to determine if MIF-GN3 mediates MIF endocytosis in a manner consistent with ASGPR (FIG. 132).

human MIF = target: T1, human MIF (Homo sapiens, UniProt P14174); assay: Depletion of human MIF from cell culture supernatant (sandwich ELISA); type: cell-based; design: host or cells: exogenous protein added to cell culture; conditions: for depletion of human MIF from cell culture supernatant / depletion of MIF from cell culture supernatant: human MIF 100 nM; for depletion of human MIF from cell culture supernatant: FIG. 128A; for depletion of MIF from cell culture supernatant: MIF-AF2 at 40 nM, 200 nM, and 1 μM, FIG. 129
T1 sequence (P14174 2-115 limits assumed): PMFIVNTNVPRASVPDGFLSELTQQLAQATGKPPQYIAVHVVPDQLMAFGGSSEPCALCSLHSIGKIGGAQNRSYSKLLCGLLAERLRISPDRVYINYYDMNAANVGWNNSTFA
Description: The ability of bifunctional MIF-binding molecules to mediate the depletion of human MIF from cell culture was investigated. In these assays, human MIF was present at a concentration of 100 nM, and a sandwich ELISA assay was utilized to measure the concentration of human MIF remaining in the cell culture supernatant. The closely related bifunctional molecules MIF-GN3, MIF-PEG2-GN3, and MIF-PEG4-GN3 were used, as well as the structurally dissimilar molecule MIF-NVS-PEG3-GN3. […] Based on the ease of its synthesis and its efficacy in this experiment, MIF-GN3 was utilized for further studies. It was next investigated whether the MIF inhibitor 3w mediates MIF depletion from cell culture supernatant. […] When cells were treated with 3w, no depletion of exogenous MIF protein was observed after 24 hours (FIG. 128B).

HepG2 cells [4] = assay: DNP-AF3-mediated endocytosis of fluorescently labeled α-DNP antibody by HepG2 cells (flow cytometry); type: cell-based, human; conditions: 40 nM DNP-AF3, 100 nM antibody; FIG. 106
Description: The intracellular fluorescence of cells that were incubated at 37° C. with both fluorescently labeled α-DNP antibody and DNP-AF3 for a given amount of time was examined. Cells were then washed, removed from the plate with trypsin, and subjected to flow cytometry. Trypsin treatment is expected to cleave ASGPR and surface-bound α-DNP antibody from cells, and therefore the cellular fluorescence observed in these assays is expected to arise only from internalized antibodies.
It was then determined if reagents which inhibit ternary complex formation inhibit endocytosis mediated by DNP-AF3. In order to account for non-specific antibody association with cells, the mean fluorescence intensity of an aliquot of cells which had been treated with α-DNP antibody but not DNP-AF3 was subtracted from each reading. […] In the presence of 2.38 μM (0.1 mg/mL) ASOR, the cell population fluorescence was decreased to 4.66e5 (FIG. 105); at this ASOR concentration, ternary complex formation is decreased by approximately 70%. Because ternary complex is not inhibited completely at this concentration of ASOR, it is expected that productive endocytic events are still taking place.

[5] = single replicate, FIG. 116, leupeptin 20 and 80, E64 50 and 10 μM, antipain 50 and 100 μM, aprotinin 400 or 800 nM, PMSF 100 or 500 μM, AEBSF 10 μM, ALLN 10 μM

CC(C)C[C@H](NC(=O)[C@@H](O)[C@H](N)Cc1ccccc1)C(=O)O [Bestatin]
inhibition of α-DNP antibody degradation, triplicate (HepG2 cells [1]): did not significantly inhibit
inhibition of α-DNP antibody degradation, initial screen (HepG2 cells [1]; [5]): not effective

CC(C)CC(=O)N[C@H](C(=O)N[C@H](C(=O)N[C@@H](CC(C)C)[C@@H](O)CC(=O)N[C@@H](C)C(=O)N[C@@H](CC(C)C)[C@@H](O)CC(=O)O)C(C)C)C(C)C [Pepstatin] (Isovaleryl-VV[Sta]A[Sta]-OH)
inhibition of degradation of α-DNP antibody, repeat with selected conditions (HepG2 cells [1]): did not
inhibition of α-DNP antibody degradation, triplicate (HepG2 cells [1]): did not significantly inhibit
toxicity to cells (HepG2 cells [1]): toxic to cells
inhibition of α-DNP antibody degradation, initial screen (HepG2 cells [1]; [5]): not effective

CC(C)C[C@H](NC(=O)[C@H]1O[C@@H]1C(=O)O)C(=O)NCCCCN=C(N)N [Compound E64, E64]
inhibition of degradation of α-DNP antibody, repeat with selected conditions (HepG2 cells [1]): inhibited degradation
inhibition of α-DNP antibody degradation, triplicate (HepG2 cells [1]): inhibit α-DNP antibody degradation at all concentrations tested
inhibition of α-DNP antibody degradation, initial screen (HepG2 cells [1]; [5]): effective

O=S(=O)(F)Cc1ccccc1 [PMSF, Phenylmethylsulfonyl fluoride]
inhibition of α-DNP antibody degradation, triplicate (HepG2 cells [1]): did not significantly inhibit
inhibition of α-DNP antibody degradation, initial screen (HepG2 cells [1]; [5]): not effective

CCN(c1nc(N)c(C(=O)NC(=N)N)nc1Cl)C(C)C [EIPA]
effect of endocytic pathway inhibitors on intracellular fluorescence (HepG2 cells [2]): did not significantly decrease
effect of endocytic pathway inhibitors on MIF-GN3-mediated MIF endocytosis (HepG2 cells [3]): significantly inhibited uptake

CCCC[C@@H](C=O)NC(=O)[C@H](CC(C)C)NC(=O)[C@H](CC(C)C)NC(C)=O [ALLN] (Ac-Leu-Leu-[Nle]-aldehyde)
inhibition of α-DNP antibody degradation, initial screen (HepG2 cells [1]; 100 μM, 12 hour time point): strong inhibition
inhibition of α-DNP antibody degradation, triplicate (HepG2 cells [1]): appeared effective
inhibition of α-DNP antibody degradation, initial screen (HepG2 cells [1]; [5]): not active

C=C1[C@@H](C)[C@H]2[C@H](Cc3ccccc3)NC(=O)[C@]23[C@H](OC(C)=O)/C=C/[C@@](C)(O)C(=O)[C@@H](C)C/C=C/[C@H]3[C@@H]1O [cytochalasin D]
effect of endocytic pathway inhibitors on intracellular fluorescence (HepG2 cells [2]): did not significantly decrease

CC(=O)NC1C(OCCOCCOCCNC(=O)CCOCC(COCCC(=O)NCCOCCOCCOC2OC(CO)C(O)C(O)C2NC(C)=O)(COCCC(=O)NCCOCCOCCOC2OC(CO)C(O)C(O)C2NC(C)=O)NC(=O)CNC(=O)COCCOCCOCCn2cc(COCCOCCOc3ccc(N4Cc5ccc(O)cc5OC4=O)cc3)nn2)OC(CO)C(O)C1O (stereo not drawn) [MIF-NVS-PEG3-GN3]
depletion of human MIF from cell culture supernatant (human MIF; 24 hours): effective at mediating the depletion of human MIF

Aprotinin
inhibition of α-DNP antibody degradation, triplicate (HepG2 cells [1]): did not significantly inhibit
inhibition of α-DNP antibody degradation, initial screen (HepG2 cells [1]; [5]): not effective

CC(=O)N[C@@H](CC(C)C)C(=O)N[C@@H](CC(C)C)C(=O)N[C@H](C=O)CCCNC(=N)N [leupeptin, Leupeptin]
inhibition of degradation of α-DNP antibody, repeat with selected conditions (HepG2 cells [1]): inhibited degradation
inhibition of α-DNP antibody degradation, triplicate (HepG2 cells [1]): inhibit α-DNP antibody degradation at all concentrations tested
inhibition of α-DNP antibody degradation, initial screen (HepG2 cells [1]; [5]): effective

CO/C1=C\C(C)=C\[C@@H](C)[C@@H](O)[C@@H](C)C/C(C)=C/C=C/[C@H](OC)[C@@H]([C@@H](C)[C@@H](O)[C@H](C)[C@@]2(O)C[C@@H](O)[C@H](C)[C@@H](C(C)C)O2)OC1=O [bafilomycin, Bafilomycin]
effect of endocytic pathway inhibitors on intracellular fluorescence (HepG2 cells [2]): significantly decreased
effect of endocytic pathway inhibitors on MIF-GN3-mediated MIF endocytosis (HepG2 cells [3]): near background levels

CC(=O)NC1C(OCCOCCOCCNC(=O)CCOCC(COCCC(=O)NCCOCCOCCOC2OC(CO)C(O)C(O)C2NC(C)=O)(COCCC(=O)NCCOCCOCCOC2OC(CO)C(O)C(O)C2NC(C)=O)NC(=O)CNC(=O)COCCOCCOCCOCCNC(=O)CCCOc2ccc3nc(-c4cn(-c5ccc(O)c(F)c5)nn4)ccc3c2)OC(CO)C(O)C1O (stereo not drawn) [MIF-PEG4-GN3]
depletion of human MIF from cell culture supernatant (human MIF; 24 hours): effective at mediating the depletion of human MIF

O=C(CCCOc1ccc2nc(-c3cn(-c4ccc(O)c(F)c4)nn3)ccc2c1)NCCOCCC(=O)NCCOCCOCCOCCOC[C@]12CO[C@H](O1)[C@H](NC(=O)C(F)(F)F)[C@@H](O)[C@H]2O [MIF-AF1]
depletion of MIF from cell culture supernatant (human MIF): not effective

CC(=O)NC1C(OCCOCCOCCNC(=O)CCOCC(COCCC(=O)NCCOCCOCCOC2OC(CO)C(O)C(O)C2NC(C)=O)(COCCC(=O)NCCOCCOCCOC2OC(CO)C(O)C(O)C2NC(C)=O)NC(=O)CNC(=O)COCCOCCNC(=O)CCCOc2ccc3nc(-c4cn(-c5ccc(O)c(F)c5)nn4)ccc3c2)OC(CO)C(O)C1O (stereo not drawn) [MIF-PEG2-GN3]
depletion of exogenous MIF protein from supernatant (human MIF; 24 hours, FIG. 128B): mediated MIF depletion across a range of concentrations
depletion of human MIF from cell culture supernatant (human MIF; 24 hours): effective at mediating the depletion of human MIF

O=C(CCOCC(COCCC(=O)NCCOCCOCCOCCOC[C@]12CO[C@H](O1)[C@H](NC(=O)C(F)(F)F)[C@@H](O)[C@H]2O)(COCCC(=O)NCCOCCOCCOCCOC[C@]12CO[C@H](O1)[C@H](NC(=O)C(F)(F)F)[C@@H](O)[C@H]2O)NC(=O)CCCOc1ccc2nc(-c3cn(-c4ccc(O)c(F)c4)nn3)ccc2c1)NCCOCCOCCOCCOC[C@]12CO[C@H](O1)[C@H](NC(=O)C(F)(F)F)[C@@H](O)[C@H]2O [MIF-AF3]
molar equivalents of MIF protein depleted (human MIF; 40 nM): 2.08 molar equivalents
human MIF protein removed (human MIF; 40 nM (4.0 pmol of molecule)): 8.32 pmol
removal of MIF present in the cell culture supernatant (human MIF; 40 nM (4.0 pmol of molecule)): 83.2%

CCN(CC)CCCC(C)Nc1ccnc2cc(Cl)ccc12 (stereo not drawn) [chloroquine, Chloroquine]
effect of endocytic pathway inhibitors on intracellular fluorescence (HepG2 cells [2]): significantly decreased
effect of endocytic pathway inhibitors on MIF-GN3-mediated MIF endocytosis (HepG2 cells [3]): near background levels

Cl.NCCc1ccc(S(=O)(=O)F)cc1 [AEBSF, 4-(2-aminoethyl)benzeneulfonyl fluoride hydrochloride]
inhibition of α-DNP antibody degradation, triplicate (HepG2 cells [1]): did not significantly inhibit
toxicity to cells (HepG2 cells [1]): toxic to cells
inhibition of α-DNP antibody degradation, initial screen (HepG2 cells [1]; [5]): not effective

Cl.N [ammonium chloride]
effect of endocytic pathway inhibitors on MIF-GN3-mediated MIF endocytosis (HepG2 cells [3]): near background levels

CC[C@@]1([C@@H]2O[C@@H]([C@H]3O[C@@](O)(CO)[C@H](C)C[C@@H]3C)C[C@@H]2C)CC[C@H]([C@]2(C)CC[C@]3(C[C@H](O)[C@@H](C)[C@@H]([C@@H](C)[C@@H](OC)[C@H](C)C(=O)O)O3)O2)O1 [monensin, Monensin]
effect of endocytic pathway inhibitors on intracellular fluorescence (HepG2 cells [2]): significantly decreased
effect of endocytic pathway inhibitors on MIF-GN3-mediated MIF endocytosis (HepG2 cells [3]): near background levels

C=C1[C@@H](C)[C@H]2[C@H](Cc3ccccc3)NC(=O)[C@]23[C@H](OC(C)=O)/C=C/[C@@](C)(O)C(=O)[C@@H](C)C/C=C/[C@H]3[C@@H]1O [cytochalisin D (CytD)]
effect of endocytic pathway inhibitors on fluorescence of the cell population (HepG2 cells [4]): non-significant decrease

O=C(CCOCC(COCCC(=O)NCCOCCOCCOCCOC[C@]12CO[C@H](O1)[C@H](NC(=O)C(F)(F)F)[C@@H](O)[C@H]2O)NC(=O)CCCOc1ccc2nc(-c3cn(-c4ccc(O)c(F)c4)nn3)ccc2c1)NCCOCCOCCOCCOC[C@]12CO[C@H](O1)[C@H](NC(=O)C(F)(F)F)[C@@H](O)[C@H]2O [MIF-AF2]
depletion of MIF from the cell culture supernatant (human MIF; 200 nM or 1 (μM), after 48 hours): ~100%
depletion of MIF from cell culture supernatant (human MIF): effective at depleting MIF

OC[C@H]1O[C@@](CO)(O[C@H]2O[C@H](CO)[C@@H](O)[C@H](O)[C@H]2O)[C@@H](O)[C@@H]1O [sucrose]
effect of endocytic pathway inhibitors on intracellular fluorescence (HepG2 cells [2]): significantly decreased
effect of endocytic pathway inhibitors on MIF-GN3-mediated MIF endocytosis (HepG2 cells [3]): near background levels
